In patent US5049570A, “Pyridylphenyl nitrogen heterocycle-substituted carbinols and derivatives thereof with anti-inflammatory activity” (Du Pont Merck Pharmaceutical Company, priority 1990, dated 1991):

These compounds were tested on inflammation induced by tetradecanoyl phorbol acetate (TPA), ears of mice (assay: TPA model: inhibition of tetradecanoyl phorbol acetate (TPA)-induced ear swelling (edema) in mice). Conditions: Mus musculus, topical, 4 h, applied to the ears in a vehicle such as acetone, edema measured four hours later, read-out: % inhibition of control swelling.
Assay type: in vivo
Design: dose or concentration left out as unconfirmed
Excerpt: One such model is inflammation induced by tetradecanoyl phorbol acetate (TPA), modified from the method of Kuehl et al., Nature, 1977, 265, 170; and Van Arman, Clin. Pharmacol. Ther., 1974, 16, 900. The TPA model mimics many of the inflammatory changes which occur in human diseases such as psoriasis, since elevated levels of inflammatory arachidonic acid metabolites are found and an influx of polymorphonuclear leukocytes is observed.
The test procedure used to evaluate the compounds of formula (I) is as follows: the test compound […] was applied to the ears of mice in an appropriate vehicle, such as acetone, and then TPA, the inflammatory stimulus was applied to the right ear. Four hours later, the edema was measured by removing standard size discs from the ears using a biopsy punch. The weights of the ears were determined, and the suppression of the swelling observed in animals not treated with the test compound was determined.

First: OC(Cn1ccnc1)(c1ccc(F)cc1)c1ccc(-c2ccncc2)cc1 (centres unmarked) [Example 1, 1-(4-fluorophenyl)-1-[4-(4-pyridyl)phenyl]-2-(1-imidazolyl)ethanol]
Second: Cc1ccc(C(O)(Cn2ccnc2)c2ccc(-c3ccncc3)cc2)cc1 (centres unmarked) [Example 11, 1-(4-methylphenyl)-1-[4-(4-pyridyl)phenyl]-2-(1-imidazolyl)ethanol]
The inhibition in vivo of the first is higher: 72% for the first, 62% for the second.

Compared with `OC(Cn1ccnc1)(c1ccc(-c2ccccn2)cc1)c1ccc(F)cc1F` (centres unmarked) [Example 2], `OC(Cn1ccnc1)(c1ccc(-c2cccnc2)cc1)c1ccc(F)cc1F` (centres unmarked) [Example 4] is higher in inhibition in vivo: 51% for the first, 52% for the second.

Going from `OC(Cn1ccnc1)(c1ccc(F)cc1)c1ccc(-c2ccccn2)cc1` (centres unmarked) [Example 3] to `OC(Cn1ccnc1)(c1ccc(F)cc1)c1cccc(-c2ccccn2)c1` (centres unmarked) [Example 6], the inhibition in vivo falls from 63% to 61%.

First: OC(Cn1ccnc1)(c1ccc(-c2ccncc2)cc1)c1ccc(F)cc1F (centres unmarked) [Example 5, 1-(2,4-difluorophenyl)-1-[4-(4-pyridyl)phenyl]-2-(1-imidazolyl)ethanol]
Second: OC(Cn1ccnc1)(c1ccc(F)cc1)c1cccc(-c2ccncc2)c1 (centres unmarked) [Example 8, 1-(4-fluorophenyl)-1-[3-(4-pyridyl)phenyl]-2-(1-imidazolyl)ethanol]
The inhibition in vivo of the first is higher: 73% for the first, 69% for the second.

Going from `OC(Cn1ccnc1)(c1ccc(F)cc1)c1cccc(-c2cccnc2)c1` (centres unmarked) [Example 7] to `OC(Cn1ccnc1)(c1ccccc1)c1ccc(-c2ccncc2)cc1` (centres unmarked) [Example 9], the inhibition in vivo falls from 64% to 46%.

Compared with `OC(Cn1ccnc1)(c1ccc(-c2ccncc2)cc1)c1ccccc1Cl` (centres unmarked) [Example 10], `OC(Cn1ccnc1)(c1ccc(Cl)cc1)c1ccc(-c2ccncc2)cc1` (centres unmarked) [Example 22, 1-(4-chlorophenyl)-1-[4-(4-pyridyl)phenyl]-2-(1-imidazolyl)ethanol] is higher in inhibition in vivo: 63% for the first, 79% for the second.

Compared with `COc1ccc(C(O)(Cn2ccnc2)c2ccc(-c3ccncc3)cc2)cc1` (centres unmarked) [Example 12, 1-(4-methoxyphenyl)-1-[4-(4-pyridyl)phenyl]-2-(1-imidazolyl)ethanol], `OC(Cn1ccnc1)(c1ccc(-c2ccncc2)cc1)c1ccc(C(F)(F)F)cc1` (centres unmarked) [Example 21, 1-(4-trifluoromethylphenyl)-1-[4-(4-pyridyl)phenyl]-2-(1-imidazolyl)ethanol] is lower in inhibition in vivo: 74% for the first, 66% for the second.
